Patent US6008227A, “Process for blocking 5-HT and dopamine uptake with biologically active tropane derivatives” (Wake Forest University, priority 1993, dated 1999)
“Also recorded” adds a separate entry of the source. Read-outs that look alike come from different tables or passages of the source.

Key:
[1] = biological target: T1, dopamine transporter (Rattus norvegicus, UniProt P23977); experiment: Displacement of [^125 I]RTI-55 binding to dopamine transporters in rat striatal membranes; conditions: for binding ratio: 5-HT K1 / DA K1, higher numbers demonstrate relatively greater dopamine transporter potency; for Ki: [^125 I]RTI-55 10-20 pM, rat striatal membranes; for displacement of [^125 I]RTI-55 binding, in words: FIG. 1
T1 construct: was used to label dopamine transporters in rat striatal membranes; from tissue; host or cells: rat striatal membranes

[2] = biological target: T2, 5-HT transporter (Rattus norvegicus, UniProt P31652); experiment: Displacement of [^3 H]paroxetine binding to 5-HT transporter sites in rat frontal cortex; parameters: from tissue; host or cells: rat frontal cortex; conditions: for displacement of [^3 H]paroxetine binding, in words: FIG. 2 / text; for selectivity between dopamine and 5-HT transporters, in words: binding assays; for times more potent than cocaine at 5-HT transporter sites: vs cocaine, [^3 H]paroxetine binding; for selectivity towards the 5-HT transporter in terms of binding and inhibition, in words: binding and uptake inhibition
[3] = biological target: T2, 5-HT transporter; experiment: Inhibition of [^3 H]5-HT uptake in dissociated frontal cortex cells from fetal and adult rat brain; type: cell-based; parameters: from tissue; host or cells: rat frontal cortex; conditions: for blocking [^3 H]5-HT uptake in cortical cells, in words: FIG. 4; for IC50: frontal cortex cells, fetal and adult rat brain
[4] = biological target: T1, dopamine transporter; experiment: Inhibition of [3H]dopamine uptake into dissociated striatal cells from fetal and adult rat brain; type: cell-based; conditions: for uptake ratio: 5-HT uptake IC50 / DA uptake IC50; for inhibition of [3H]dopamine uptake into striatal cells, in words: FIG. 3; for dopamine: 5-HT ratio: regardless of the assay used (binding or uptake)
[5] = vs cocaine, [^125 I]RTI-55 binding
[6] = read-out: [^3 H] paroxetine K1, [^3 H]paroxetine, rat frontal cortex

T2 sequence (P31652 whole entry): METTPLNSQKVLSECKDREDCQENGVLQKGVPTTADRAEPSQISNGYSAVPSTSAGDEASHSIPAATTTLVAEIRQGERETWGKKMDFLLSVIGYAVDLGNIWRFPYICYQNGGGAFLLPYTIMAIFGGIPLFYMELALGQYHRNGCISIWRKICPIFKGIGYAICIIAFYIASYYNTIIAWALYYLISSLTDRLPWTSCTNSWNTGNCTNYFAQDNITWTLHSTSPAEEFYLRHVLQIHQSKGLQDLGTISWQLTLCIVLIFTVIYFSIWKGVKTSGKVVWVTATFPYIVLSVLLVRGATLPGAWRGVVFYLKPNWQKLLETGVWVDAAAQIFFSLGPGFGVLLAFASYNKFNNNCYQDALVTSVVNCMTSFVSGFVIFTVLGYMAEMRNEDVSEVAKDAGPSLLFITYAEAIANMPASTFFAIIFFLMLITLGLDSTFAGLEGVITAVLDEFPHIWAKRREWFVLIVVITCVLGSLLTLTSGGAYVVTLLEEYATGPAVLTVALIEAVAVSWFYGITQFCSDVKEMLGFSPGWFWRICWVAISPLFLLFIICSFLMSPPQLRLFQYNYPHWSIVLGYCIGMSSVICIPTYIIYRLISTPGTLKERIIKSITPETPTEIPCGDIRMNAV
T1 sequence (P23977 whole entry): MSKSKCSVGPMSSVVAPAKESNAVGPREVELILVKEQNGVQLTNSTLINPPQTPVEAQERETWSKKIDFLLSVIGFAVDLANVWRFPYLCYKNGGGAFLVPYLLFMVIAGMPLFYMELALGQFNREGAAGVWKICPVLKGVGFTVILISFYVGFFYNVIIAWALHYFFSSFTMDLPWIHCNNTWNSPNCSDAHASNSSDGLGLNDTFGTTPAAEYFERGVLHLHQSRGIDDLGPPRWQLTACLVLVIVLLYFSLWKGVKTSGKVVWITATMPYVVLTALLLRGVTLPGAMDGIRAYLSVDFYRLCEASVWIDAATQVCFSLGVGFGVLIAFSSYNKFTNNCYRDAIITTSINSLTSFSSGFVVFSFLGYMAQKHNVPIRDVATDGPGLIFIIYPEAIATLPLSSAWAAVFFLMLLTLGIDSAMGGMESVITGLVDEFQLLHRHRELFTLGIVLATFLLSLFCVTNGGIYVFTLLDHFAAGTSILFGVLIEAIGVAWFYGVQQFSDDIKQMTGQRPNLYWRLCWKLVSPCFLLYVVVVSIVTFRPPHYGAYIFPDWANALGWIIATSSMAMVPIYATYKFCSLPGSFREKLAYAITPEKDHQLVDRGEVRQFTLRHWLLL

Compound: CC(=O)[C@H]1[C@@H](c2ccc(F)cc2)C[C@@H]2CC[C@H]1N2C (relative stereo) [WF-7]
- binding ratio [1]: 12.1

Compound: COC(=O)[C@H]1[C@@H](c2ccccc2)C[C@@H]2CC[C@H]1N2C (relative stereo) [WF-10]
- Ki [1]: 98.8 ± 12.2 nM

Compound: CCC(=O)[C@@H]1[C@@H](c2ccc(C)cc2)C[C@@H]2CC[C@H]1N2C (relative stereo) [WF-13]
- Ki [1]: 764 ± 84 nM
- Ki [2]: > 10000 nM

Compound: CCC(=O)[C@@H]1[C@@H](c2ccc3cc(OC)ccc3c2)C[C@@H]2CC[C@H]1N2C (relative stereo) [WF-34]
- binding ratio [1]: 3.76
- Ki [1]: 54.7 ± 15 nM
- Ki [2]: 206 ± 81 nM

Compound: CCC(=O)[C@H]1[C@@H](c2ccc3ccccc3c2)C[C@@H]2CC[C@H]1N2C (relative stereo) [WF-23]
- binding ratio [1]: 3.1
- Ki [1]: 0.2 ± 0.04 nM
- times more potent than cocaine at both transporters ([1]; vs cocaine, dopamine and 5-HT transporter binding): 500-800 times
- Ki [2]: 0.63 ± 0.2 nM
- displacement of [^3 H]paroxetine binding, in words [2]: the most potent compounds in displacing [^3 H]paroxetine binding
- selectivity between dopamine and 5-HT transporters, in words [2]: like cocaine, with little selectivity between the two transporters
- times more potent than cocaine at 5-HT transporter sites [2]: 480 times
- blocking [^3 H]5-HT uptake in cortical cells, in words [3]: significantly more potent than cocaine in blocking [^3 H]5-HT uptake
- IC50 [3]: 0.27 nM
- IC50 [4]: 0.027 ± 0.016 nM
- uptake ratio [4]: 10.0
- inhibition of [3H]dopamine uptake into striatal cells, in words [4]: the most potent analog in inhibiting dopamine uptake
- dopamine: 5-HT ratio [4]: 3-4

Compound: CCC(=O)[C@H]1[C@@H](CC)C[C@@H]2CC[C@H]1N2C (relative stereo) [WF-18]
- Ki [1]: > 50000 nM

Compound: CC(=O)[C@@H]1[C@@H](c2ccc(C)cc2)C[C@@H]2CC[C@H]1N2C (relative stereo) [WF-3]
- Ki [1]: 775 ± 57 nM
- Ki [2]: > 10000 nM

Compound: CCC(=O)[C@H]1[C@@H](C2CCCCC2)C[C@@H]2CC[C@H]1N2C (relative stereo) [WF-19]
- Ki [2]: > 10000 nM

Compound: CCC(=O)[C@@H]1[C@@H](CC)C[C@@H]2CC[C@H]1N2C (relative stereo) [WF-14]
- Ki [1]: > 50000 nM
- Ki [2]: > 10000 nM

Compound: CC(=O)[C@@H]1[C@@H](c2cccc3ccccc23)C[C@@H]2CC[C@H]1N2C (relative stereo) [WF-15]
- Ki [1]: 97 ± 21 nM

Compound: CCC(=O)[C@@H]1[C@@H](c2ccc3ccccc3c2)C[C@@H]2CC[C@H]1N2C (relative stereo) [WF-24]
- binding ratio [1]: 6.53
- Ki [1]: 2.51 ± 0.82 nM
- IC50 [4]: 5.9 ± 2.4 nM

Compound: CC(=O)[C@H]1[C@@H](c2ccc(C)cc2)C[C@@H]2CC[C@H]1N2C (relative stereo) [WF-4]
- binding ratio [1]: 12.4
- Ki [1]: 9.8 ± 0.5 nM
- IC50 [3]: 330 ± 75 nM
- IC50 [4]: 13.8 ± 2.6 nM
- uptake ratio [4]: 24

Compound: CCC(=O)[C@H]1[C@@H](c2ccc(C)cc2)C[C@@H]2CC[C@H]1N2C (relative stereo) [WF-11]
- binding ratio [1]: 15.9
- Ki [1]: 8.2 ± 1.6 nM
- times more potent than cocaine in binding to dopamine transporters [1, 5]: 20 times
- displacement of [^3 H]paroxetine binding, in words [2]: approximately equipotent with cocaine in displacing [^3 H]paroxetine binding
- selectivity between dopamine and 5-HT transporters, in words [2]: relatively more selective for dopamine transporters
- times more potent than cocaine at 5-HT transporter sites [2]: twice
- IC50 [3]: 310 ± 104 nM
- IC50 [4]: 2.21 ± 1.7 nM
- uptake ratio [4]: 140
- times more potent in inhibiting dopamine uptake than 5-HT uptake ([4]; uptake assays): 140 times

Compound: CCC(=O)[C@H]1[C@@H](c2ccccc2C)C[C@@H]2CC[C@H]1N2C (relative stereo) [WF-22]
- binding ratio [1]: 1.30
- Ki ([1]; read-out:): 814 ± 220 nM
- Ki [2, 6]: 1060 ± 395 nM

Compound: CCC(=O)[C@H]1[C@@H](c2ccc(C(C)C)cc2)C[C@@H]2CC[C@H]1N2C (relative stereo) [WF-31]
- binding ratio [1]: 0.089
- displacement of [^125 I]RTI-55 binding, in words [1]: less potent in displacing [^125 I]RTI-55 than cocaine
- Ki ([1]; read-out:): 615 ± 98 nM
- times less potent than cocaine at dopamine transporters [1, 5]: 2.5 times
- displacement of [^3 H]paroxetine binding, in words [2]: significantly more potent in displacing [^3 H]paroxetine than cocaine
- selectivity towards the 5-HT transporter in terms of binding and inhibition, in words [2]: considerable selectivity towards the 5-HT transporter
- Ki [2, 6]: 54.5 ± 8.9 nM
- times more potent than cocaine at 5-HT transporter sites [2]: 8 times
- blocking [^3 H]5-HT uptake in cortical cells, in words [3]: significantly more potent than cocaine in blocking [^3 H]5-HT uptake
- IC50 [3]: 46.9 nM
- times more potent in inhibiting 5-HT uptake than dopamine uptake ([3]; uptake assays): 120 times
- inhibition of [3H]dopamine uptake into striatal cells, in words [4]: considerably less potent in blocking [3H]dopamine uptake
- IC50 ([4]; read-out: DA uptake IC50, striatal cells, fetal and adult rat brain): 5840 ± 2600 nM

Compound: CCC(=O)[C@H]1[C@@H](c2ccc3cc(OC)ccc3c2)C[C@@H]2CC[C@H]1N2C (relative stereo) [WF-33]
- displacement of [^125 I]RTI-55 binding, in words [1]: the most potent of these compounds; also recorded: equipotent in displacing [^125 I]RTI-55 binding
- displacement of [^3 H]paroxetine binding, in words [2]: the most potent compounds in displacing [^3 H]paroxetine binding
- times less potent than WF-23 in displacing [^3 H]paroxetine binding ([2]; vs WF-23): 4 times
- times more potent than cocaine at 5-HT transporter sites [2]: 140 times

Compound: CC(=O)[C@H]1[C@@H](c2cccc3ccccc23)C[C@@H]2CC[C@H]1N2C (relative stereo) [WF-8]
- IC50 [3]: 4.55 nM
- IC50 [4]: 20.7 ± 7.7 nM

Compound: CC(=O)[C@@H]1[C@@H](c2ccc(F)cc2)C[C@@H]2CC[C@H]1N2C (relative stereo) [WF-1]
- Ki [1]: 929 ± 160 nM
- Ki [2]: > 10000 nM

Compound: COC(=O)[C@@H]1[C@@H](c2ccccc2)C[C@@H]2CC[C@H]1N2C (relative stereo) [WF-6]
- Ki [1]: 2060 ± 545 nM

Compound: CCC(=O)[C@H]1[C@@H](c2ccc(C)c3ccccc23)C[C@@H]2CC[C@H]1N2C (relative stereo) [WF-27]
- binding ratio [1]: 0.358
- Ki [1]: 25.1 ± 0.5 nM
- selectivity towards the 5-HT transporter in terms of binding and inhibition, in words [2]: considerable selectivity towards the 5-HT transporter
- IC50 [3]: 14.6 nM
- IC50 [4]: 260 ± 98 nM

Compound: CCC(=O)[C@H]1[C@@H](c2ccc(C(C)(C)C)cc2)C[C@@H]2CC[C@H]1N2C (relative stereo) [WF-26]
- binding ratio [1]: 0.84

Compound: CCC(=O)C1C(c2ccc3ccccc3c2)CC2CCC1N2C (single isomer, unassigned) [WF-23(1)]
- binding ratio [1]: 4.2
- Ki [1]: 113 ± 26 nM
- selectivity between dopamine and 5-HT transporters, in words [2]: the same as the racemic mixture of WF-23

Compound: CC(=O)[C@H]1[C@@H](c2ccc3ccccc3c2)C[C@@H]2CC[C@H]1N2C (relative stereo) [WF-32]
- binding ratio [1]: 4.27
- Ki [1]: 0.248 ± 0.15 nM

Compound: CCC(=O)[C@H]1[C@@H](c2cccc3ccccc23)C[C@@H]2CC[C@H]1N2C (relative stereo) [WF-30]
- binding ratio [1]: 3.91
- Ki [1]: 5.34 ± 1.27 nM
- IC50 [3]: 5.43 nM
- IC50 [4]: 3.66 ± 1.91 nM
- uptake ratio [4]: 1.46

Compound: CCC(=O)[C@H]1[C@@H](c2ccc(-c3ccccc3)cc2)C[C@@H]2CC[C@H]1N2C (relative stereo) [WF-35]
- binding ratio [1]: 1.88

Compound: CCC(=O)C1C(c2ccc3ccccc3c2)CC2CCC1N2C (single isomer, unassigned) [WF-23(2)]
- IC50 [1]: ~0.03 nM
- binding ratio [1]: 3.96
- Ki [1]: 0.032 ± 0.007 nM
- Ki [2]: 0.127 ± 0.05 nM
- displacement of [^3 H]paroxetine binding, in words [2]: also potent vs. [^3 H]paroxetine binding
- selectivity between dopamine and 5-HT transporters, in words [2]: the same as the racemic mixture of WF-23
- dopamine: 5-HT ratio [4]: 3-4

Compound: CCC(=O)[C@@H]1[C@@H](c2ccccc2C)C[C@@H]2CC[C@H]1N2C (relative stereo) [WF-21]
- Ki [2, 6]: > 10000 nM

Compound: CCc1ccc([C@H]2C[C@@H]3CC[C@H]([C@@H]2C(C)=O)N3C)cc1 (relative stereo) [WF-16]
- Ki [1]: 2290 ± 360 nM
- Ki [2]: > 10000 nM

Compound: CCc1ccc([C@H]2C[C@@H]3CC[C@H]([C@H]2C(C)=O)N3C)cc1 (relative stereo) [WF-9]
- binding ratio [1]: 0.51
- Ki [1]: 152 ± 24 nM
- selectivity towards the 5-HT transporter in terms of binding and inhibition, in words [2]: considerable selectivity towards the 5-HT transporter
- IC50 [3]: 9.5 ± 5.4 nM
- IC50 [4]: 1160 ± 266 nM
- uptake ratio [4]: 0.0082

Compound: Cc1ccc([C@H]2C[C@@H]3CC[C@H]([C@@H]2C(=O)C(C)C)N3C)cc1 (relative stereo) [WF-17]
- Ki [1]: 2130 ± 266 nM
- Ki [2]: > 10000 nM

Compound: CC(=O)[C@@H]1[C@@H](c2ccccc2)C[C@@H]2CC[C@H]1N2C (relative stereo) [WF-2]
- Ki [1]: 7270 ± 1210 nM
- Ki [2]: > 10000 nM
